Test results from article PMC3001885, “Metabolic Activity and mRNA Levels of Human Cardiac CYP450s Involved in Drug Metabolism” (PLoS ONE, 2010).

Experiments:
[1] = test system: CYP450s in human heart microsomes; assay: Inhibition of verapamil metabolite formation in human heart microsomes by chemical inhibitors; settings: inhibitor 100 µM, verapamil 400 µM
human heart microsomes = assay: Verapamil metabolism in human heart microsomes (formation of metabolites, HPLC); assay type: in vitro ADME
Method: The HPLC system (Thermo Separation products, Fremont, CA) consisted of a SpectraSystem P4000 pump, a SpectraSystem AS3000 autosampler, a FL3000 fluorescence detector, a SpectraSystem UV3000 ultraviolet detector and PC1000 System Software.
Frozen samples of human heart ventricles (4–10 g) were immersed in cold phosphate buffer 100 mM (pH 7.4) containing potassium chloride 150 mM, EDTA 1 mM, dithiotreitol 0.5 mM and PMSF 0.01 mM (1∶3, w/v). Tissue was roughly sliced prior to homogenization using a Polytron. The resulting suspension was sonicated 3 times for 5–10 seconds. Homogenization and sonication were performed on ice. Microsomal fractions were isolated by centrifugation at 10,000 g for 20 minutes. The resulting supernatant was centrifuged twice at 100,000 g for 2 consecutive 90-minute periods. The final microsomal pellet was resuspended in a phosphate buffer 100 mM (pH 7.4), potassium chloride 150 mM and EDTA 1 mM. All procedures were performed at 4°C. […] The leftover heart microsomes were immediately shock frozen in liquid nitrogen for subsequent protein quantification. Microsomal heart proteins were quantified using a BCA Pierce kit.
All microsomal incubations were performed in duplicate.
Incubations containing microsomes, buffer and NADPH-regenerating system solution were pre-incubated at 37°C for 10 minutes. […] The enzymatic process was stopped by adding 500 µL of ice-cold acetonitrile. Different incubation times were assessed: 15 minutes to 4 hours. Incubation mixtures were centrifuged at 15,000 rpm for 10 minutes.
A series of incubations was also performed with previously inactivated human heart microsomes. The CYP450 proteins were inactivated by heating microsomes at 60°C for 10 minutes. Incubations were also conducted in the presence of nitrogen gas or carbon monoxide gas in replacement of ambient air to inactivate CYP450s.

[2] = left ventricular microsomes, n = 20, substrate verapamil
[3] = microsomes prepared from right ventricles, n = 8, substrate verapamil

| Structure (SMILES) | decrease in formation of all major verapamil metabolites [1] | formation rate of verapamil metabolites, median (range; minimum-maximum values) (human heart microsomes; [2]) | formation rate of verapamil metabolites, median (range; minimum-maximum values) (human heart microsomes; [3]) |
| --- | --- | --- | --- |
| CCCC(C(=O)OCCN(CC)CC)(c1ccccc1)c1ccccc1 [SKF525] | more than 80% | – | – |
| CCCCCCCCN [N-octylamine] | more than 80% | – | – |
| COc1cc(C(C#N)(CCCNCCc2ccc(OC)c(OC)c2)C(C)C)ccc1O (stereo not drawn) [PR22] | – | 27 (2.1–76) pmol/min/mg of heart microsomal proteins | 21 (3.7–64.4) pmol/min/mg of heart microsomal proteins |
| COc1ccc(CCNCCCC(C#N)(c2ccc(OC)c(OC)c2)C(C)C)cc1OC (stereo not drawn) [norverapamil] | – | 25 (5.8–214) pmol/min/mg of heart microsomal proteins | 39 (5.8–145) pmol/min/mg of heart microsomal proteins |
